# Experimental data as given in US9724537B2, “Abnormal electrical conduction blocking apparatus using photodynamic therapy (PDT)” (Keio University, priority 2006, dated 2017).
# Experiments:
# [1] = system: rat cardiac muscle cells in primary culture; assay: Pulsation and cell conditions of cardiac muscle cells in primary culture after PDT; format: cell-based
# Experimental: Cardiac muscle cells in primary culture were purchased in suspension and seeded on a 96-well microplate. Cells were cultured at 37° C. under 5% CO2, and cells on days 3 and 7 of culture were used. The cardiac muscle cells in primary culture were pulsatile, and pulsations among cells were synchronizing.
# Cardiac muscle cells in primary culture were adjusted to a density of 2.0×10^4 cells/well. As a photosensitizer talaporfin sodium was dissolved in a medium at various concentrations and added at a concentration of 0.1 ml/well. After 1 to 2 h of loading, laser irradiation was performed, and the medium was replaced after the completion of irradiation.
# At this time, a 0.5-cm^2 irradiation field (=area of well) was irradiated with a continuous semiconductor laser beam (peak wavelength, 670.8 nm) under various conditions. […]
# Laser intensity: 150 mW/cm^2
# Total energy density: 1, 2, 3, 5 J/cm^2
# In Table 1, 1d, 2d, and 3d refer to one, two, and three days after PDT, respectively. μg refers to the photosensitizer concentration in μg/ml. Numerical values in Table 1 are (number of samples in which pulsation restarted)/(total number of samples).
# [2] = Fluorescence observation of photosensitizer distribution in rat cardiac muscle tissue over time; format: in vivo, Wistar rat; details: 2 mg/kg i.v.
# Experimental: As a tissue, the right ventricular free wall isolated from a Wistar rat (male, 8 to 10 weeks old) was used. Immediately after animals were allowed to inhale vaporized diethyl ether, heparin and Nembutal (0.2 and 0.5 ml, respectively) were administered intraperitoneally at a dose of 2 mg/kg, and a solution of Laserphyrin (Meiji Seika Kaisha, Ltd.) dissolved in physiological saline at a dose of 0.5 ml were intravenously injected from the lower extremity vena cava. The heart was isolated at 5 min (Experiment 1), 30 min (Experiment 2), and 60 min (Experiment 3) after injection, and the target tissue was ablated. […] As a sample for fluorescence observation, a cross-section of the above-mentioned tissue was excised in a thickness of 10 μm using a freezing microtome in the direction in which the base and the apex of the heart are aligned, placed on a slide glass, and dried for one or two days.
# A light of a mercury lamp (Olympus Corporation) was attenuated with an ND filter (Olympus Corporation, 12%), and only a light in the 400-nm band was extracted with a band path filter (Olympus Corporation) and delivered to the sample as an excitation light. Fluorescence of the photosensitizer was selectively extracted with a dichroic mirror (OMEGA, 636 nm-) and a band path filter (OMEGA, 695 nm; half bandwidth, 27.5 nm) and photographed with a CCD camera. […]
smiles,measurement,setting,value
"C=Cc1c(C)c2cc3nc(c(CC(=O)N[C@@H](CC(=O)O)C(=O)O)c4[nH]c(cc5nc(cc1[nH]2)C(C)=C5CC)c(C)c4C(=O)O)[C@@H](CCC(=O)O)[C@@H]3C [talaporfin sodium, mono-L-aspartyl chlorine 6]",Restart of pulsation in cardiac muscle cells: (number of samples in which pulsation restarted)/(total number of samples),"[1]; 5 μg (μg/ml), 1J, 1 d after PDT",4/8
same,Restart of pulsation in cardiac muscle cells: (number of samples in which pulsation restarted)/(total number of samples),"[1]; 5 μg (μg/ml), 1J, 2 d after PDT",8/8
same,Restart of pulsation in cardiac muscle cells: (number of samples in which pulsation restarted)/(total number of samples),"[1]; 5 μg (μg/ml), 1J, 3 d after PDT",8/8
same,Restart of pulsation in cardiac muscle cells: (number of samples in which pulsation restarted)/(total number of samples),"[1]; 5 μg (μg/ml), 2J, 1 d after PDT",1/8
same,Restart of pulsation in cardiac muscle cells: (number of samples in which pulsation restarted)/(total number of samples),"[1]; 5 μg (μg/ml), 2J, 2 d after PDT",8/8
same,Restart of pulsation in cardiac muscle cells: (number of samples in which pulsation restarted)/(total number of samples),"[1]; 5 μg (μg/ml), 2J, 3 d after PDT",8/8
same,Restart of pulsation in cardiac muscle cells: (number of samples in which pulsation restarted)/(total number of samples),"[1]; 5 μg (μg/ml), 3J, 1 d after PDT",0/8
same,Restart of pulsation in cardiac muscle cells: (number of samples in which pulsation restarted)/(total number of samples),"[1]; 5 μg (μg/ml), 3J, 2 d after PDT",7/8
same,Restart of pulsation in cardiac muscle cells: (number of samples in which pulsation restarted)/(total number of samples),"[1]; 5 μg (μg/ml), 3J, 3 d after PDT",8/8
same,Restart of pulsation in cardiac muscle cells: (number of samples in which pulsation restarted)/(total number of samples),"[1]; 5 μg (μg/ml), 5J, 1 d after PDT",0/8
same,Restart of pulsation in cardiac muscle cells: (number of samples in which pulsation restarted)/(total number of samples),"[1]; 5 μg (μg/ml), 5J, 2 d after PDT",8/8
same,Restart of pulsation in cardiac muscle cells: (number of samples in which pulsation restarted)/(total number of samples),"[1]; 5 μg (μg/ml), 5J, 3 d after PDT",8/8
same,Restart of pulsation in cardiac muscle cells: (number of samples in which pulsation restarted)/(total number of samples),"[1]; 10 μg (μg/ml), 1J, 1 d after PDT",0/8
same,Restart of pulsation in cardiac muscle cells: (number of samples in which pulsation restarted)/(total number of samples),"[1]; 10 μg (μg/ml), 1J, 2 d after PDT",8/8
same,Restart of pulsation in cardiac muscle cells: (number of samples in which pulsation restarted)/(total number of samples),"[1]; 10 μg (μg/ml), 1J, 3 d after PDT",8/8
same,Restart of pulsation in cardiac muscle cells: (number of samples in which pulsation restarted)/(total number of samples),"[1]; 10 μg (μg/ml), 2J, 1 d after PDT",0/8
same,Restart of pulsation in cardiac muscle cells: (number of samples in which pulsation restarted)/(total number of samples),"[1]; 10 μg (μg/ml), 2J, 2 d after PDT",7/8
same,Restart of pulsation in cardiac muscle cells: (number of samples in which pulsation restarted)/(total number of samples),"[1]; 10 μg (μg/ml), 2J, 3 d after PDT",8/8
same,Restart of pulsation in cardiac muscle cells: (number of samples in which pulsation restarted)/(total number of samples),"[1]; 10 μg (μg/ml), 3J, 1 d after PDT",0/8
same,Restart of pulsation in cardiac muscle cells: (number of samples in which pulsation restarted)/(total number of samples),"[1]; 10 μg (μg/ml), 3J, 2 d after PDT",8/8
same,Restart of pulsation in cardiac muscle cells: (number of samples in which pulsation restarted)/(total number of samples),"[1]; 10 μg (μg/ml), 3J, 3 d after PDT",8/8
same,Restart of pulsation in cardiac muscle cells: (number of samples in which pulsation restarted)/(total number of samples),"[1]; 10 μg (μg/ml), 5J, 1 d after PDT",1/8
same,Restart of pulsation in cardiac muscle cells: (number of samples in which pulsation restarted)/(total number of samples),"[1]; 10 μg (μg/ml), 5J, 2 d after PDT",8/8
same,Restart of pulsation in cardiac muscle cells: (number of samples in which pulsation restarted)/(total number of samples),"[1]; 10 μg (μg/ml), 5J, 3 d after PDT",8/8
same,pulsation immediately after PDT,"[1]; 10 μg/ml, 3 J/cm^2",the pulsation stopped immediately after PDT
same,cell conditions at one day after PDT,"[1]; 10 μg/ml, 3 J/cm^2, FIG. 12",no damage was observed in the cell conditions
same,restart of pulsation and synchronization,"[1]; 10 μg/ml, 3 J/cm^2, see Table 1","the pulsation restarted, and synchronization was observed at about one to three days after experiment"
same,Restart of pulsation in cardiac muscle cells: (number of samples in which pulsation restarted)/(total number of samples),"[1]; 15 μg (μg/ml), 1J, 1 d after PDT",0/8
same,Restart of pulsation in cardiac muscle cells: (number of samples in which pulsation restarted)/(total number of samples),"[1]; 15 μg (μg/ml), 1J, 2 d after PDT",8/8
same,Restart of pulsation in cardiac muscle cells: (number of samples in which pulsation restarted)/(total number of samples),"[1]; 15 μg (μg/ml), 1J, 3 d after PDT",8/8
same,Restart of pulsation in cardiac muscle cells: (number of samples in which pulsation restarted)/(total number of samples),"[1]; 15 μg (μg/ml), 2J, 1 d after PDT",0/8
same,Restart of pulsation in cardiac muscle cells: (number of samples in which pulsation restarted)/(total number of samples),"[1]; 15 μg (μg/ml), 2J, 2 d after PDT",8/8
same,Restart of pulsation in cardiac muscle cells: (number of samples in which pulsation restarted)/(total number of samples),"[1]; 15 μg (μg/ml), 2J, 3 d after PDT",8/8
same,Restart of pulsation in cardiac muscle cells: (number of samples in which pulsation restarted)/(total number of samples),"[1]; 15 μg (μg/ml), 3J, 1 d after PDT",1/8
same,Restart of pulsation in cardiac muscle cells: (number of samples in which pulsation restarted)/(total number of samples),"[1]; 15 μg (μg/ml), 3J, 2 d after PDT",8/8
same,Restart of pulsation in cardiac muscle cells: (number of samples in which pulsation restarted)/(total number of samples),"[1]; 15 μg (μg/ml), 3J, 3 d after PDT",8/8
same,Restart of pulsation in cardiac muscle cells: (number of samples in which pulsation restarted)/(total number of samples),"[1]; 15 μg (μg/ml), 5J, 1 d after PDT",0/8
same,Restart of pulsation in cardiac muscle cells: (number of samples in which pulsation restarted)/(total number of samples),"[1]; 15 μg (μg/ml), 5J, 2 d after PDT",8/8
same,Restart of pulsation in cardiac muscle cells: (number of samples in which pulsation restarted)/(total number of samples),"[1]; 15 μg (μg/ml), 5J, 3 d after PDT",8/8
same,restart of pulsation,"[1]; 20 μg/ml, 3 J/cm^2",The pulsation did not restart permanently
same,cell conditions at one day after PDT,"[1]; 20 μg/ml, 3 J/cm^2, FIG. 13","Associated cells were separated, and individual cells themselves shrank"
same,photosensitizer distribution in cardiac muscle tissue,[2]; 30 and 60 min after injection,"white streaks were observed all over the images at 30 and 60 min, showing the existence of the photosensitizer in the surroundings"
same,photosensitizer distribution in cardiac muscle tissue,[2]; approx. 5 min after injection,almost no photosensitizer was present immediately after the intravenous injection
